Test results taken from patent publication US7005533B2, “Bisphosphonate derivatives, their preparations and uses” (Universite Paris 13, priority 2001, dated 2006).

What was measured:
[1] = test system: A 431 tumors; test: In vivo growth of subcutaneous A 431 tumors in immunosuppressed mice; settings: for inhibition of the growth of A 431 tumors: 0.6 mg/injection/mouse, twice weekly s.c. near the tumor, after 5 weeks of treatment, P<0.05
Procedure: A 431 cells were injected subcutaneously into immunosuppressed mice. The mice developed tumors within one week. Tumor-bearing mice were assigned randomly to a control group or to treatment groups receiving different concentrations of BP1 and BP2.
Mice received twice weekly by subcutaneous injection near the tumor either 0.1 ml of PBS alone for the controls (n=6), or PBS containing either BP1 or BP2 at the following doses: 0.006 (n=6); 0.06 (n=6) or 0.6 mg/injection (n=6). Tumors were measured weekly and their volume V calculated by the formula: V=(4/3)πR1^2R2 wherein R1 is radius 1 and R2 radius 2, with R1<R2.

[2] = test system: A 431 human carcinoma cells; test: MTT cell proliferation test, A 431 cells; assay type: cell-based; settings: 2 mM
Procedure: (§1) The bisphosphonates BP1 and BP2 were tested in different cell lines: • FRCjun MRA, a murine fibrosarcoma cell line produced by transfection of FR3T3 cells by the oncogene jun-4, • A 431 human carcinoma cells. These cells harbor a VEGF (vascular endothelial growth factor) autocrine loop and, after implantation in immunosuppressed mice, induce rapid development of highly angiogenic tumors. • MDA MB 435 human breast tumor cells, • HUV-EC-C, transformed human umbilical cord endothelial cells (HUVEC), • BBC, bovine cerebral capillary endothelial cells.
(§2) Cell proliferation in the presence of different concentrations of BP1 or BP2 was measured by an MTT test after 24, 48 and 72 h of culture.

[3] = test system: A 431 tumors; test: Intratumoral angiogenesis of A 431 tumors (GSL 1 immunohistochemistry, image analysis); assay type: in vivo, mice; settings: observed starting from the lowest doses (0.006 mg/injection)
Procedure: Animals were sacrificed and the tumors excised, then weighed, fixed, embedded in paraffin and sliced. Endothelial cells from tumor blood vessels laid down during tumor angiogenesis were visualized by immunohistochemical methods (GSL 1). Tumor angiogenesis was evaluated by image analysis with NIH image software.

[4] = Trypan blue exclusion test (cytotoxicity of BP1 and BP2); assay type: cell-based; settings: even at concentrations above 5 mM
[5] = test system: MDA MB 435 human breast tumor cells; test: MTT cell proliferation test, MDA MB 435 cells; assay type: cell-based; settings: 2 mM, after 48 h of culture
Procedure: as §1, §2

[6] = Toxicity test in tumor-free immunosuppressed mice; assay type: in vivo; settings: one injection per day for one week
Procedure: Tumor-free immunosuppressed mice were treated with BP1 and BP2 at doses ranging from 0.06 to 6 mg per injection and per animal. Mice received one injection per day for one week. Animals were weighed before, during and after treatment.

[7] = test system: FRCjun MRA, a murine fibrosarcoma cell line; test: MTT cell proliferation test, FRCjun MRA cells; assay type: cell-based; settings: Mus musculus; 2 mM, after 48 h of culture, FRCjunMRA cells
Procedure: as §1, §2

[8] = test system: MCF7 cells; test: Apoptosis by Annexine V-FITC / propidium iodide, MCF7 cells; assay type: cell-based; settings: 10 mM, after 4 hours of treatment
Procedure: (§3) In order to determine the nature of the toxicity of sodium phenylacetate bisphosphonate, MCF7 and MCF7-ras cells are cultivated, and then washed after 24 hours, and cultivated for 3 hours in DMEM medium with 10% of foetal calf serum. Phenylacetate bisphosphonate (10 mM) is added to one group but not to the other group. Apoptosis is determined by the test of Annexine V conjugated with FITC antibody. Propidium iodide is used in order to determine early apoptosis (positive staining for Annexine V and negative staining with propidium iodide) and late apoptosis (positive staining with Annexine V and with propidium iodide).

[9] = test system: MCF7-ras cells; test: Apoptosis by Annexine V-FITC / propidium iodide, MCF7-ras cells; assay type: cell-based; settings: 10 mM, after 4 hours of treatment
Procedure: as §3

[10] = test system: MCF7-ras cells; test: DNA degradation (agarose gel electrophoresis), MCF7-ras cells; assay type: cell-based; settings: 10 mM, after 96 hours
Procedure: (§4) The cell apoptosis is confirmed by the method of DNA degradation. MCF7 and MCF7-ras cells are cultivated (5×10^5 cells in T25 flasks). After 24 hours, the cells are washed, and then cultivated in DMEM medium with 10% of foetal calf serum; phenylacetate bisphosphonate (10 mM) is added to one group, and no phenylacetate bisphosphonate is added to the other group.
(§5) After 96 hours, the cell extract containing the fragmented DNA is incubated with 0.5 mg/ml of RNase A at 37° C. for one hour, then with 0.5 mg/ml of proteinase K for one hour at 37° C. After incubation, the fragmented DNA is precipitated by isopropanol and then dissolved in 10 mM of Tris-HCl (pH 8) […], 5% of glycerol and 0.05% bromophenol blue. The fragmented DNA separated by electrophoresis on agarose gel at 1% is marked with ethidium bromide and photographed in UV.

[11] = test system: MCF7-ras tumors; test: In vivo antitumor effect on MCF7-ras tumors in female athymic nude mice
Procedure: Inoculation of 4×10^6 MCF7-ras cells in female athymic nude mice is made sub-cutaneously in a 0.1 ml volume of DMEM, which induces 70% of tumors after three weeks.
Treatment with phenylacetate bisphosphonate begun when the mean volume of the tumors was 550 mm^3. The animals are divided in two groups, on receiving phenylacetate bisphosphonate, and the other no. Phenylacetate bisphosphonate is injected sub-cutaneously and peritumorally, twice a week, during 5 weeks, and the doses are 80 mg/kg (5 cases) and 160 mg/kg (6 cases).

[12] = test system: MCF7-ras tumors; test: Anti-angiogenic effect in MCF7-ras tumors, GSL1 lectin method; assay type: in vivo, mice
Procedure: The anti-angiogenic was verified by the GSL1 lectin method.
By using GSL1 lectin, angiogenesis is determined and identified by the red coloration staining of endothelial cells with anti-GSL1 antibody. It is noted that this angiogenesis is inhibited by the treatment of the tumors with phenylacetate bisphosphonate. This effect is partial but important (80%) at the 80 mg/kg dose. and complete at 160 mg/kg.

[13] = test system: MCF7-ras cells; test: MCF7-ras cell growth and viability (Trypan blue test); assay type: cell-based; settings: for toxicity (cell viability, Trypan blue): 8 and 10 mM
Procedure: MCF7-ras cells are cultivated (20,000 cells/well), on a dish of 24 wells. After incubation for 24 hours, the medium (DMEM with 10% foetal calf serum) is replaced with the same medium to which are added various concentrations of phenylacetate bisphosphonate (2 mM, 4 mM, 6 mM, 8 mM and 10 mM). The cells are incubated for 1 to 4 days at 37° C. The cell viability is controlled by the Trypan blue test.

[14] = test system: MCF7 cells; test: DNA degradation (agarose gel electrophoresis), MCF7 cells; assay type: cell-based; settings: 10 mM, after 96 hours
Procedure: as §4, §5

[15] = test system: acute hepatitis; test: Liver histology (HES) in nude mice having an acute hepatitis; assay type: in vivo; settings: 80 mg/kg or 160 mg/kg s.c., twice a week for five weeks
Procedure: The study is carried out on nude mice having an acute hepatitis. The mice are divided in two groups, one being treated with sodium phenylacetate bisphosphonate, whilst the second is not. Phenylacetate bisphosphonate is administered to the treated mice sub-cutaneously (80 mg/kg or 160 mg/kg), twice a week for five weeks. The mice are sacrificed and the liver is histologically analyzed after HES (method of Hematoxiline Eosine Staining).

[16] = test system: MCF7-ras cells; test: Reversibility of proliferation inhibition, tritiated thymidine incorporation; assay type: cell-based; settings: 10 days treatment, thymidine after 15 days
Procedure: In order to check the reversibility of the effect of phenylacetate bisphosphonate, MCF7-ras cells have been treated with increasing concentrations of phenylacetate bisphosphonate for 10 days, the medium being changed every two days. The cells are divided in two groups. The DMEM medium supplemented with 10% of foetal calf serum is added to the first group, and the same medium with 10 mM of phenylacetate bisphosphonate is added to the second group, the medium being changed every two days. After 15 days, tritiated thymidine is added during 4 hours and the radioactivity of the suspension is determined by using a beta liquid scintigraphic counter (Beckman).

[17] = test system: MCF7-ras tumors; test: Pro-apoptotic effect in MCF7-ras tumors, M30 antibody staining; assay type: in vivo, mice
Description: Further, the proapoptotic effect of phenylacetate bisphosphonate is confirmed by the technique of antibody staining. The staining of apoptotic cells is made by the M30 antibody which recognises the specific site of caspases on the cytokeratine 18 filaments produced by the epithelial cells. Such filaments rapidly aggregate in the cells in early apoptosis, by hyperphosphorylation of cytokeratines. By this cytoplasmic staining, granular structures are observed inside the cytoplasm, which corresponds to cells in late apoptosis.

Structure (SMILES): COP(=O)(O)C(O)(Cc1ccccc1)P(=O)(O)OC (centres unmarked) [BP2]
- inhibition of the growth of A 431 tumors [1]: 56%
- comparative in vivo efficacy ([1]; A 431 tumors in mice): greater efficacy than BP1
- inhibition at 2000 µM ([2]; after 48 h of culture): 30%
- inhibition at 2000 µM ([2]; after 72 h, P<0.05): 80%
- inhibition of intratumoral angiogenesis (endothelial cell area per unit of area) [3]: significant decrease in endothelial cell area per unit of area
- cytotoxicity (trypan blue exclusion) [4]: do not induce cytotoxicity
- inhibition at 2000 µM [5]: 60%
- signs of toxicity such as hair loss, diarrhea, infection or anemia ([6]; all doses tested (0.06–6 mg/injection)): no signs of toxicity
- inhibition at 2000 µM [7]: 40%

Structure (SMILES): O=P(O)(O)C(O)(Cc1ccccc1)P(=O)(O)O [BP1, reference compound]
- inhibition of the growth of A 431 tumors [1]: 40%
- inhibition of intratumoral angiogenesis (endothelial cell area per unit of area) [3]: significant decrease in endothelial cell area per unit of area
- cytotoxicity (trypan blue exclusion) [4]: do not induce cytotoxicity
- signs of toxicity such as hair loss, diarrhea, infection or anemia ([6]; doses less than 6 mg/injection): no signs of toxicity

Structure (SMILES): O=P(O)(O)C(O)(Cc1ccccc1)P(=O)(O)O [phenylacetate bisphosphonate]
- percentage of cells in late apoptosis ([8]; MCF7 cells): 22%
- percentage of cells in early apoptosis ([8]; MCF7 compared with MCF7-ras): almost identical in the two cell types
- percentage of cells in late apoptosis ([9]; MCF7-ras cells): 53%
- percentage of cells in early apoptosis ([9]; MCF7-ras compared with MCF7): almost identical in the two cell types
- degradation of DNA [10]: dramatic degradation of DNA
- tumor growth when the treatment is stopped ([11]; 80 mg/kg dose): tumor growth relapsed is observed
- tumor growth when the treatment is stopped ([11]; 160 mg/kg dose): blocked for at least three weeks
- inhibition of the growth of the tumors ([11]; 80 and 160 mg/kg s.c. peritumorally, twice a week, 5 weeks, at the end of the treatment): irreversible and dose dependent
- toxic effect in vivo ([11]; even when the treatment is applied during a long period of time): without any toxic affect
- proliferation of MCF7-ras cells and growth of mammary tumors in vivo ([11]; first five or six weeks of treatment): irreversibly blocks
- immunohistologic analysis of the tumors: what the decrease in tumor growth is related to ([11]; treated MCF7-ras tumors): induction of apoptosis, to a sharp decrease of angiogenesis of the tumor and induction of fibrose in the tumor
- inhibition of tumor angiogenesis ([12]; 80 mg/kg dose): 80%
- inhibition of tumor angiogenesis ([12]; 160 mg/kg): complete
- toxicity (cell viability, Trypan blue) ([13]; by the fourth day of culture): 50–60%
- toxicity (cell viability, Trypan blue) ([13]; three first days of culture): 10%
- effect on cell growth ([13]; concentrations lower than 6 mM, three first days of culture): cytostatic
- degradation of DNA [14]: dramatic degradation of DNA
- hepatic toxicity noted in treated mice [15]: 4 cases out of 5
- reversibility of the inhibition of cell proliferation ([16]; dose above 4 mM): irreversible
- reversibility of the inhibition of cell proliferation ([16]; dose of 2 mM): partially reversible
- state of tumor cells (M30 / cytokeratine 18 staining) ([17]; 80 mg/kg dose): apoptosis
- state of tumor cells (M30 / cytokeratine 18 staining) ([17]; 160 mg/kg dose): aponecrosis
